Test results from US20160002174A1, “CXCR4 Antagonists for the Treatment of Medical Disorders” (Emory University, priority 2005, published 2016).
Entries after “also recorded” stand apart in the source; their conditions may differ.

Assays:
MDA-MB-231 cells = test: Cell viability of MDA-MB-231 cells; format: cell-based, human; details: even at 100 μM (the highest concentration tested)
[1] = system: CXCR4/SDF-1 mediated invasion of MDA-MB-231; test: Matrigel invasion assay, CXCR4/SDF-1-mediated invasion; format: cell-based, human; details: MDA-MB-231, 2 nM
Method: FIG. 10 is a graph and representative blot of matrigel invasion and Akt phosphorylation in cells. A: Inhibition of CXCR4/SDF-1 mediated invasion of MDA-MB-231 in vitro by WZZL811S. CXCR4/SDF-1 mediated invasion of MDA-MB-231 was blocked either by 2 nM of TN14003 or WZZL811S. B: Incubating MDA-MB-231 cells with 100 ng/ml of SDF-1 for 30 min stimulated phosphorylation of Akt that blocked by WZZL811S in a dose-dependent manner
Lowering CXCR4 mRNA levels by siRNAs inhibited CXCR4/SDF-1-mediated invasion as measured by a matrigel invasion assay. The CXCR4 ligand, SDF-1 (400 ng/ml) was added to the lower chamber to attract CXCR4-positive breast cancer cells to migrate through the matrigel. The invasion of MDA-MB-231 cells transfected with siRNA1 decreased to 39±4% of the control cells, 51±8% with siRNA2, and only 16±6% with both siRNA1+2 (FIG. 3A).
WZZL811S was tested in a matrigel invasion assay to determine whether it can inhibit CXCR4/SDF-1-mediated invasion.

phosphorylation of Akt = test: SDF-1-stimulated phosphorylation of Akt (western blot); format: cell-based, human; details: for blocking of SDF-1-stimulated Akt phosphorylation (dose-dependent): MDA-MB-231 cells, 100 ng/ml SDF-1 for 30 min
Text: FIG. 2 is an image of a western blot showing phosphorylation of Akt.
FIG. 10 is a graph and representative blot of matrigel invasion and Akt phosphorylation in cells.
(§1) CXCR4/SDF-1 interaction activates PI3K/Akt and Ras/Raf/MEK/Erk pathways in a Gαi protein (PTX-sensitive)-dependent manner.

metastatic 686LN cells = test: Head & Neck cancer metastasis model, 686LN cells injected through the tail vein, FDG-PET; format: in vivo, mice; details: 20 mg/mouse/twice weekly, thirty days
Method: The metastatic 686LN cells were injected intravenously through the tail vein to generate experimental animal models for Head & Neck cancer metastasis, modulated via CXCR4. […] These 3-D projection images show lung metastases well (bone mets and liver mets were apparent in axial section images of mice in control groups, data not shown).

[2] = system: human umbilical vein endothelial cells (HUVECs); test: Endothelial capillary tube formation assay; format: cell-based; details: 100 nM, SDF-1 100 ng/ml, 18 hours
Method: The anti-angiogenic effect of test compounds was measured by analyzing endothelial cell growth and tube formation. The angiogenic effect of SDF-1 (100 ng/ml) on capillary formation by human umbilical vein endothelial cells (HUVECs) was examined in vitro using Matrigel-coated 24-well plates precoated with Matrigel and incubated for 18 hours. The angiogenic effect of SDF-1 was inhibited by either 100 nM TN14003 (peptide-based CXCR4 antagonist) or WZZL811S treatment (FIG. 14a, graph FIG. 14b).

SHIV = SHIV infection, p27 antigen capture; format: cell-based; details: 0.1, 1, 10 or 100 nM drug prior to infection; 2 to 5 days
Method: The effect of the test compounds on HIV infection in model cells was analyzed by p27 antigen capture using SHIV infected cells. Cells were incubated with 0, 0.1, 1, 10 or 100 nM drug prior to infection with SHIV. Viral titer was measured after infection by analyzing levels of p27 antigen. […] The inhibition was measurable at 2 days, and continued to 5 day incubations.

CXCR4 = CXCR4 (Homo sapiens, UniProt P61073); test: Competition assay using biotin-labeled TN14003 and streptavidin-conjugated rhodamine on tumor cells; format: binding; details: cells pre-incubated with different concentrations
CXCR4, sequence (P61073 whole entry): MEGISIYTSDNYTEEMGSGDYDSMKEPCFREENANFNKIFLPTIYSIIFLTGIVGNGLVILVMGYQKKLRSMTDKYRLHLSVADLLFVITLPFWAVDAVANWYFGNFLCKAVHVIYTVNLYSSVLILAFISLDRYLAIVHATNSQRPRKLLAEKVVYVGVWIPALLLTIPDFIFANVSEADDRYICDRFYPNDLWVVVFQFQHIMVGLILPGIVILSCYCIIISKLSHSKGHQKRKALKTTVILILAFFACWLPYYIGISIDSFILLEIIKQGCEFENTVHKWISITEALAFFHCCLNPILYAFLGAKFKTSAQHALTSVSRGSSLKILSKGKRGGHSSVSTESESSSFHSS
Method: FIG. 8 is images of fluorescens micrographs of stained cells. Biotin-labeled TN14003 was used to detect CXCR4 protein from the cells pre-incubated with various concentrations of WZZL811S.
Using biotin-labeled TN14003 along with streptavidin-conjugated rhodamine allowed a determination of the binding efficiency of these chemicals to the SDF-1 binding site of CXCR4 on tumor cells and compared it to AMD3100-SDF-1 interactions (FIG. 7). […] Cells were pre-incubated with different concentrations of AMD3100. […] Therefore, one of these compounds, WZZL811S, was selected to study its therapeutic potential based on potency and low toxicity to cells (FIG. 9).

Erk1/2 phosphorylation = test: SDF-1-stimulated Erk1/2 phosphorylation; format: cell-based, human; details: data not shown
Text: as §1

CXCR4 protein levels = CXCR4 protein levels in treated cells; format: cell-based, human
Text: as §1

[3] = cited from earlier work

concentration needed to compete against biotin-labeled TN14003 (CXCR4) [µM] | SMILES | effect on cell viability (MDA-MB-231 cells) | blocking of SDF-1-induced matrigel invasion [1] | blocking of SDF-1-stimulated Akt phosphorylation (dose-dependent) (phosphorylation of Akt) | efficacy relative to TN14003 (metastatic 686LN cells) [%] | inhibition of the angiogenic effect of SDF-1 (tube formation) [2] | inhibition of SHIV infection (p27 antigen) (SHIV) | concentration blocking Akt activation (phosphorylation of Akt; 100 ng/ml SDF-1 for 30 minutes) | concentration attenuating Erk1/2 phosphorylation (Erk1/2 phosphorylation) [nM] | effect on CXCR4 protein levels (CXCR4 protein levels) | side effect in clinical study [3]
 | c1ccc(NCc2ccc(CNc3ccccn3)cc2)nc1 [WZZL811S] | did not decrease cell viability | blocked; also recorded: as potent as TN14003 | blocked | 80 | inhibited | inhibited SHIV infection at all concentrations tested |  |  |  | 
10 | C1=CC(CN2CCCNCCNCCCNCC2)CC=C1CN1CCCNCCNCCCNCC1 (stereo not drawn) [AMD3100] |  |  | blocked |  |  |  | a few nano molar | 100 | did not affect | cardiac-related side effect
